From patent US20210253538A1, “AMINOPYRAZINES AND RELATED COMPOUNDS USEFUL AS MITOCHONDRIAL UNCOUPLERS” (VIRGINIA TECH INTELLECTUAL PROPERTIES, INC., priority 2018, published 2021)

What was measured:
[1] = tested on: whole cells (NMuLi, C2C12, and L6 cells, isolated cardiomyocytes, human primary fibroblasts); assay: Oxygen consumption rate (OCR) in whole cells, Seahorse XF-24 Flux Analyzer; assay type: cell-based
Protocol: Biological activities of the compounds synthesized is determined by determining increase in oxygen consumption rate (OCR).
Oxygen consumption rate (OCR) in whole cells is measured in general accordance with the method of Kenwood B M et al. (Mol. Met. (2014) 3: 114-123).
OCR is measured using a Seahorse XF-24 Flux Analyzer (Seahorse Biosciences, North Billerica, Mass.). NMuLi, C2C12, and L6 cells are seeded in a Seahorse 24-well tissue culture plate at a density of 3.5×10^4 cells/well, isolated cardiomyocytes at a density of 4×10^4 cells/well, and human primary fibroblasts at a density of 1.1×10^4 cells/well. The cells are then allowed to adhere for 24 h. Prior to the assay, the media is changed to unbuffered DMEM containing pyruvate and glutamine (Gibco #12800-017, pH=7.4 at 37° C.) and the cells are equilibrated for 30 mins at 37° C. Compounds are injected during the assay and OCR is measured using 2 min measurement periods.
2-3 wells are used per condition and averaged over three plates (n=6-9). Statistical significance is determined by two-way ANOVA with Bonferroni's posttest.

[2] = patients consuming ~300 mg/d, over several months, without changes in food intake; cited from earlier work

Row | SMILES | increase in oxygen consumption rate (OCR) [1] | Average weight shed [2]
1 | FC(F)(F)Oc1ccc(Nc2ncc(C(F)(F)F)nc2OCc2ccccc2)cc1 [Compound 3-18, 3-(Benzyloxy)-N-(4-(Trifluoromethoxy)Phenyl)-5-(Trifluoromethyl)Pyrazin-2-Amine] | observable activity | 
2 | Oc1nc(C(F)(F)F)cnc1Nc1ccc(OC(F)(F)F)cc1 [Compound 3-19, 3-((4-(Trifluoromethoxy)Phenyl)Amino)-6-(Trifluoromethyl)Pyrazin-2-Ol] | observable activity | 
3 | Oc1nc(-c2ccc(C(F)(F)F)cc2)cnc1Nc1ccc(OC(F)(F)F)cc1 [Compound 3-26, 3-((4-(Trifluoromethoxy)Phenyl)Amino)-6-(4-(Trifluoromethyl)Phenyl) Pyrazin-2-Ol] | observable activity | 
4 | O=[N+]([O-])c1ccc(O)c([N+](=O)[O-])c1 [DNP, 2,4-dinitrophenol] |  | 1.5 pounds per week
